Measured values as given in ChEMBL document CHEMBL4507326, “Data for DCP probe TP-030-2” (2021).
The source made the active and inactive calls. No cut-off for these calls is given here.

Assays:
[1] = molecular target: Beta-1 adrenergic receptor (Homo sapiens) (UniProt P08588); details: Compound concentration 10.0 uM
[2] = molecular target: Delta-type opioid receptor (Homo sapiens) (UniProt P41143); details: Compound concentration 10.0 uM
[3] = molecular target: Serine/threonine-protein kinase SIK2 (Homo sapiens, UniProt Q9H0K1); experiment: QIK(SIK2LGY1) Takeda global kinase panel
Ephrin type-A receptor 7 = Ephrin type-A receptor 7 (Homo sapiens, UniProt Q15375); experiment: EphA7(EPA7LGF1) Takeda global kinase panel
[4] = molecular target: ATP-sensitive inward rectifier potassium channel 11 (Cricetulus griseus) (UniProt A0A3L7HHE1); experiment: Inhibition of Potassium Channel [KATP] at 10 µM in the Eurofins-Panlabs radioligand binding assay (Eurofins_assay_265600); details: Cricetinae; Compound concentration 10.0 uM
[5] = molecular target: Cyclin-dependent kinase 17 (Homo sapiens, UniProt Q00537); experiment: PCTAIRE2(CD17SGS1) Takeda global kinase panel
SRSF protein kinase 2 = SRSF protein kinase 2 (Homo sapiens, UniProt P78362); experiment: SRPK2(SRP2IGRL) Takeda global kinase panel
Sequence of SRSF protein kinase 2 (P78362 whole entry): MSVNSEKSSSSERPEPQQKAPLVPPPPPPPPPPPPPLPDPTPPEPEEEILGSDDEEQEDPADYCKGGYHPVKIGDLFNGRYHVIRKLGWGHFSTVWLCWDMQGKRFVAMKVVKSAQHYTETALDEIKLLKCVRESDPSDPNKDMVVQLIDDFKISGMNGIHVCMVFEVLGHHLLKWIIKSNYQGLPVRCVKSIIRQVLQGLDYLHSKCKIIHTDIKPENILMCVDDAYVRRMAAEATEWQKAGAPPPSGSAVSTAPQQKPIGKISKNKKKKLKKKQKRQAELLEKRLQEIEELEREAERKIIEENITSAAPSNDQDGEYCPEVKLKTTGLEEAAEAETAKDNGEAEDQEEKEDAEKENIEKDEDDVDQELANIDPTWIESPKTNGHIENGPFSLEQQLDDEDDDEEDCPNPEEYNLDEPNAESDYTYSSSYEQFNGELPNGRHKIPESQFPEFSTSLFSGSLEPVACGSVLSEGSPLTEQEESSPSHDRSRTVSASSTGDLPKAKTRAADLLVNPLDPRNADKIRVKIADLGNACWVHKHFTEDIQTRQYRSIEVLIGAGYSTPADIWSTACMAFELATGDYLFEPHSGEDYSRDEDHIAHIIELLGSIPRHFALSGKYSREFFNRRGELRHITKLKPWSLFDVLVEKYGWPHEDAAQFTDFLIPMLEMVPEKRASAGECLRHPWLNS

[6] = molecular target: Homeodomain-interacting protein kinase 2 (Homo sapiens, UniProt Q9H2X6); experiment: HIPK2(HIP2LGY1) Takeda global kinase panel
[7] = molecular target: Protein-tyrosine kinase 2-beta (Homo sapiens, UniProt Q14289); experiment: PYK2(PT2BLHF1) Takeda global kinase panel
[8] = molecular target: 5-hydroxytryptamine receptor 2B (Homo sapiens) (UniProt P41595); details: Compound concentration 10.0 uM
[9] = molecular target: Casein kinase I isoform gamma-3 (Homo sapiens, UniProt Q9Y6M4); experiment: CK1gamma3(C1G3LGI5) Takeda global kinase panel
Sequence of Casein kinase I isoform gamma-3 (Q9Y6M4 whole entry, canonical isoform): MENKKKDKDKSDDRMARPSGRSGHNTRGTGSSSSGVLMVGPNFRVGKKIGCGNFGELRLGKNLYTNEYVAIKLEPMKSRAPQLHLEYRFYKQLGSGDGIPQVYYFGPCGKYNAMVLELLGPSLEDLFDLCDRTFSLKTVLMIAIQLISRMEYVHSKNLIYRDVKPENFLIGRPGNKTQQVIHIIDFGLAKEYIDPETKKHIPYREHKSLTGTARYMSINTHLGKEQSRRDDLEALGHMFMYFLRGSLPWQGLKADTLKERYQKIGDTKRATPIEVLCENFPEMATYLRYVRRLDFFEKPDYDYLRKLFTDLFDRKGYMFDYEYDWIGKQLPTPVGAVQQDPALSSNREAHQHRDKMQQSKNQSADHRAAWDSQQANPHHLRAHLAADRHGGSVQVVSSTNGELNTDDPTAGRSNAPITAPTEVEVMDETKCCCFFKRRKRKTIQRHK

[10] = molecular target: Tyrosine-protein kinase Fgr (Homo sapiens, UniProt P09769); experiment: Fgr(FGR1LGF1) Takeda global kinase panel
[11] = molecular target: Alpha-1A adrenergic receptor (Homo sapiens) (UniProt P35348); experiment: Inhibition of Adrenergic alpha1A at compound concentration of 10.0 uM in the Eurofins-Panlabs radioligand binding assay (Eurofins_assay_203110); parameters: ligand concentration 0.25 nM; details: Rattus norvegicus; Compound concentration 10.0 uM
[12] = molecular target: Mitogen-activated protein kinase kinase kinase 13 (Homo sapiens, UniProt O43283); experiment: LZK(M313LGRJ) Takeda global kinase panel
[13] = molecular target: Sigma non-opioid intracellular receptor 1 (Homo sapiens) (UniProt Q99720); experiment: Sigma 1 Eurofins-Panlabs radioligand binding assay; parameters: ligand concentration 15 nM; details: Compound concentration 10.0 uM
Sequence of Sigma non-opioid intracellular receptor 1 (Homo sapiens) (Q99720 whole entry): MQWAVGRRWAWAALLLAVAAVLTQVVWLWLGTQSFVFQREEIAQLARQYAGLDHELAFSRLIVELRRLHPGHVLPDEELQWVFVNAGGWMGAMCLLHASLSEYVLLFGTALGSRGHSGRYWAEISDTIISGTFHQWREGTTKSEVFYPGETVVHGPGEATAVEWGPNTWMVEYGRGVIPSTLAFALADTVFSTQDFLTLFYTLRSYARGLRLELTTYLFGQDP

eIF-2-alpha kinase GCN2 = eIF-2-alpha kinase GCN2 (Homo sapiens, UniProt Q9P2K8); experiment: GCN2(EIK4PHK1) Takeda global kinase panel
[14] = molecular target: Muscarinic acetylcholine receptor M1 (Homo sapiens) (UniProt P11229); details: Compound concentration 10.0 uM
[15] = molecular target: Mitogen-activated protein kinase kinase kinase kinase 4 (Homo sapiens, UniProt O95819); experiment: HGK [ZC1(M4K4CGP1)] Takeda global kinase panel
Sequence of Mitogen-activated protein kinase kinase kinase kinase 4 (O95819 whole entry): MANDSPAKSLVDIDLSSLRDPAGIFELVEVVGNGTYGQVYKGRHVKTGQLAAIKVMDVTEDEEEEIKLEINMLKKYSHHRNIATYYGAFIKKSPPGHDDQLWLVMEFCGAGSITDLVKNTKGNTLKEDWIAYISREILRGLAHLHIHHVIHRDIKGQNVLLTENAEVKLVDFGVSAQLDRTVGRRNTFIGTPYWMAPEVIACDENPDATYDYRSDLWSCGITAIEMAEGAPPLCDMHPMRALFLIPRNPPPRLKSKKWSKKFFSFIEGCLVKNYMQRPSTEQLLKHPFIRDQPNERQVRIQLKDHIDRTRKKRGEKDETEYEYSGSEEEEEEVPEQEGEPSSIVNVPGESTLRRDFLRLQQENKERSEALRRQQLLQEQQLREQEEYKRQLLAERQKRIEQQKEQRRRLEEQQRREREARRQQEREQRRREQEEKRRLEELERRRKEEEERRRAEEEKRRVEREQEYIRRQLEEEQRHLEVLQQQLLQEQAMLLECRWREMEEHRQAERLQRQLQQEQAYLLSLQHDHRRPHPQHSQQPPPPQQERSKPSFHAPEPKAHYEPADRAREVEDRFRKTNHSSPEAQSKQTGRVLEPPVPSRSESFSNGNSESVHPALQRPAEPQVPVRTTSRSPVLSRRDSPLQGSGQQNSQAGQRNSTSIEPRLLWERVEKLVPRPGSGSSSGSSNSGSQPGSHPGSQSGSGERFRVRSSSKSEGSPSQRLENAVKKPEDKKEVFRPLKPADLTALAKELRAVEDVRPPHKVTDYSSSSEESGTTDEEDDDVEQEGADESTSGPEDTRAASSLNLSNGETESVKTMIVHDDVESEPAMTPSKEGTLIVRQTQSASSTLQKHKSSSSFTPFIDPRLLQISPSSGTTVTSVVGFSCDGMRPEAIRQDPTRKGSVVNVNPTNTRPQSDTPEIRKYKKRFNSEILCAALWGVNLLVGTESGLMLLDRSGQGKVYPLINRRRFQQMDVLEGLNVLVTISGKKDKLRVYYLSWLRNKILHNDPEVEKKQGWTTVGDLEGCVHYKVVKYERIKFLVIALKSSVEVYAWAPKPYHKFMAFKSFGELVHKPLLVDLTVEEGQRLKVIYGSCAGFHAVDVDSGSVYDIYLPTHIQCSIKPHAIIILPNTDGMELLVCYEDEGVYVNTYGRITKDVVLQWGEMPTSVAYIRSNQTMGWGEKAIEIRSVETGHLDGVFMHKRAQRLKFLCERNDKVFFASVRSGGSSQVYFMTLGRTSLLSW

[16] = molecular target: Tyrosine-protein kinase Tec (Homo sapiens, UniProt P42680); experiment: TEC(TEC1CGD1) Takeda global kinase panel
[17] = molecular target: Histamine H2 receptor (Homo sapiens) (UniProt P25021); details: Compound concentration 10.0 uM
Sequence of Histamine H2 receptor (Homo sapiens) (P25021 whole entry): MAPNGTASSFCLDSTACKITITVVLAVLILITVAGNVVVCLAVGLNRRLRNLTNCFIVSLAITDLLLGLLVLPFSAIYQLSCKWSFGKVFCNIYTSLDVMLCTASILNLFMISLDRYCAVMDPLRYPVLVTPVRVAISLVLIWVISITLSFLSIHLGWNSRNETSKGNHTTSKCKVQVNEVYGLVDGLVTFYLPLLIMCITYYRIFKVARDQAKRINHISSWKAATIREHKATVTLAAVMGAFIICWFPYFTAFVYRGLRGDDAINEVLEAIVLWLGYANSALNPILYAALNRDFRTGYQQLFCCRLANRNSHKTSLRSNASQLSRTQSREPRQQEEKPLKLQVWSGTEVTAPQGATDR

[18] = molecular target: Histamine H1 receptor (Homo sapiens) (UniProt P35367); details: Compound concentration 10.0 uM
Sequence of Histamine H1 receptor (Homo sapiens) (P35367 whole entry): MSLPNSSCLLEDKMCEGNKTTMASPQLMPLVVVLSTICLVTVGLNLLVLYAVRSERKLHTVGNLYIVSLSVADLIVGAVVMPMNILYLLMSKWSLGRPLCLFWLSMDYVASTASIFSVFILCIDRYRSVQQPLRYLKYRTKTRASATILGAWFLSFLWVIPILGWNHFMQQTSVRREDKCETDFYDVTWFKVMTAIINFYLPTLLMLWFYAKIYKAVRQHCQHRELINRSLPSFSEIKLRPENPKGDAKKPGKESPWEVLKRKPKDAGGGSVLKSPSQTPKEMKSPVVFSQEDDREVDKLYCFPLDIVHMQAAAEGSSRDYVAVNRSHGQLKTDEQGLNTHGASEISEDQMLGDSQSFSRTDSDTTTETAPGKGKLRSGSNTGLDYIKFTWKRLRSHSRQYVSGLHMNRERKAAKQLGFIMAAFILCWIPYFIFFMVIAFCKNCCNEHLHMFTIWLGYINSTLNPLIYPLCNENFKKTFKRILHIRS

[19] = molecular target: RAC-gamma serine/threonine-protein kinase (Homo sapiens, UniProt Q9Y243); experiment: Akt3 [PKBgamma(AKT3LGY1)] Takeda global kinase panel
[20] = molecular target: Vascular endothelial growth factor receptor 3 (Homo sapiens, UniProt P35916); experiment: FLT4(FLT4LGY1) Takeda global kinase panel
[21] = molecular target: Cyclin-dependent kinase 13 (Homo sapiens, UniProt Q14004); experiment: CHED(CD13PHS1) Takeda global kinase panel
[22] = molecular target: Citron Rho-interacting kinase (Homo sapiens, UniProt O14578); experiment: CRIK(CIT1LGY1) Takeda global kinase panel
[23] = molecular target: Tyrosine-protein kinase Fer (Homo sapiens, UniProt P16591); experiment: Fer(FER1LGY1) Takeda global kinase panel
[24] = molecular target: NUAK family SNF1-like kinase 2 (Homo sapiens, UniProt Q9H093); experiment: NuaK2(NUA2LHY1) Takeda global kinase panel
[25] = molecular target: STE20-related kinase adapter protein alpha (Homo sapiens, UniProt Q7RTN6); experiment: STLK5(STRAPHD1) Takeda global kinase panel
[26] = molecular target: Tyrosine-protein kinase Fes/Fps (Homo sapiens, UniProt P07332); experiment: Fes(FES1LHY1) Takeda global kinase panel
[27] = molecular target: Serine/threonine-protein kinase 4 (Homo sapiens, UniProt Q13043); experiment: MST1(STK4LGF1) Takeda global kinase panel
[28] = molecular target: Sodium-dependent serotonin transporter (Homo sapiens) (UniProt P31645); details: Compound concentration 10.0 uM
[29] = molecular target: cGMP-dependent protein kinase 2 (Homo sapiens, UniProt Q13237); experiment: PKG2(PRG2LHY1) Takeda global kinase panel
[30] = molecular target: Alpha-2C adrenergic receptor (Homo sapiens, UniProt P18825); experiment: GPCRScan assay: inhibition of Alpha2C; parameters: radioligand conc. used [nm] 0.5 – 1.0, parental cells stable MDCK
Sequence of Alpha-2C adrenergic receptor (P18825 whole entry): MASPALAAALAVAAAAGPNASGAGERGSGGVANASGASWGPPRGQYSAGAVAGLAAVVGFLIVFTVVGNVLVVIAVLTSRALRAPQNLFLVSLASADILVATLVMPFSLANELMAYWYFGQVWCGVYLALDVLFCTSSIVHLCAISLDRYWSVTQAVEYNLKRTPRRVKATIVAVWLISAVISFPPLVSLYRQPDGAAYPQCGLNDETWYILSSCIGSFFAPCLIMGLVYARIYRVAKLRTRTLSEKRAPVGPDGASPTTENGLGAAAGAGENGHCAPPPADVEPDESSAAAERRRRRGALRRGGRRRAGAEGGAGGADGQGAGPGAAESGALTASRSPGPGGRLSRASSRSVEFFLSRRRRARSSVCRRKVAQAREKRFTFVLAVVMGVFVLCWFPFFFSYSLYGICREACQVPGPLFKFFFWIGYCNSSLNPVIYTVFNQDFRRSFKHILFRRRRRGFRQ

[31] = molecular target: Kappa-type opioid receptor (Homo sapiens) (UniProt P41145); details: Compound concentration 10.0 uM
[32] = molecular target: Receptor-interacting serine/threonine-protein kinase 1 (Mus musculus, UniProt Q60855); experiment: TR-FRET (mouse RIPK1)
Sequence of Receptor-interacting serine/threonine-protein kinase 1 (Q60855 whole entry): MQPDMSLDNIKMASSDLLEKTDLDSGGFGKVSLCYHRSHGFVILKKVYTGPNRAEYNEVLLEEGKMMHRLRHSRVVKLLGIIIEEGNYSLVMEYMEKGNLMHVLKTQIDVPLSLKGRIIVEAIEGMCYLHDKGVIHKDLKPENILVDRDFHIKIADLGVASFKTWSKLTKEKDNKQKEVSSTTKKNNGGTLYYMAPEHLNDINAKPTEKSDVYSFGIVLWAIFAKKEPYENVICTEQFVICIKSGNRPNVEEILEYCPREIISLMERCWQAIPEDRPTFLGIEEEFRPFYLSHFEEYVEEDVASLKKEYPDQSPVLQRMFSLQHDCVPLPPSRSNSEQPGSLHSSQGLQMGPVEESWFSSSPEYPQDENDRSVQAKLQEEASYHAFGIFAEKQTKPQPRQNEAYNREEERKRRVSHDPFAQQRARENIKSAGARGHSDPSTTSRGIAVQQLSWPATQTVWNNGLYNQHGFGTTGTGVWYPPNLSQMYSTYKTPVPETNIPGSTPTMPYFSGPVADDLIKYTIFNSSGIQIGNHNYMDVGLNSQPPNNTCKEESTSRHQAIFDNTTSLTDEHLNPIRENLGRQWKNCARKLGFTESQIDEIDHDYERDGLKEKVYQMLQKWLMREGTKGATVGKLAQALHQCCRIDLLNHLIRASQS

[33] = molecular target: Mitogen-activated protein kinase kinase kinase 12 (Homo sapiens, UniProt Q12852); experiment: DLK(M312CGY1) Takeda global kinase panel
[34] = molecular target: Mu-type opioid receptor (Homo sapiens) (UniProt P35372); details: Compound concentration 10.0 uM
[35] = molecular target: Voltage-dependent N-type calcium channel subunit alpha-1B (Homo sapiens) (UniProt Q00975); experiment: Inhibition of Calcium Channel N-Type at 10 µM in the Eurofins-Panlabs radioligand binding assay (Eurofins_assay_216000); details: Rattus norvegicus; Compound concentration 10.0 uM
[36] = molecular target: Serine/threonine-protein kinase D1 (Homo sapiens, UniProt Q15139); experiment: PKD1(PRD1LHY1) Takeda global kinase panel
[37] = molecular target: Serine/threonine-protein kinase 26 (Homo sapiens, UniProt Q9P289); experiment: MST4(MST4LGC1) Takeda global kinase panel
Sequence of Serine/threonine-protein kinase 26 (Q9P289 whole entry, canonical isoform): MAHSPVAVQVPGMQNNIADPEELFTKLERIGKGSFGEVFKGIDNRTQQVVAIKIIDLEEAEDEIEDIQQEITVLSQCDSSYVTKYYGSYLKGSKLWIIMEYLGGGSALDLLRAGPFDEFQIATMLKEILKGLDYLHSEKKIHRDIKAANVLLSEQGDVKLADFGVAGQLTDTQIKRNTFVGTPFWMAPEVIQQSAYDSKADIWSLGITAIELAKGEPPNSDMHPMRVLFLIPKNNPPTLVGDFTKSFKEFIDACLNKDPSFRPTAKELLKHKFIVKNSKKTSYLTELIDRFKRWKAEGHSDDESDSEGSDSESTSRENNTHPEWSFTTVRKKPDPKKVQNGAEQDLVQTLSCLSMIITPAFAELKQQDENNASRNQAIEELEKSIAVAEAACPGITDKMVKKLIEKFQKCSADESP

[38] = molecular target: Casein kinase I isoform epsilon (Homo sapiens, UniProt P49674); experiment: CK1epsilon(CS1ELGI5) Takeda global kinase panel
[39] = molecular target: Ankyrin repeat and protein kinase domain-containing protein 1 (Homo sapiens, UniProt Q8NFD2); experiment: SgK288(ANK1LGRL) Takeda global kinase panel
[40] = molecular target: Myosin light chain kinase (Homo sapiens, UniProt Q32MK0); experiment: caMLCK(MYL3LGF1) Takeda global kinase panel
[41] = molecular target: Insulin-like growth factor 1 receptor (Homo sapiens, UniProt P08069); experiment: IGF1R(IGF1LGF1) Takeda global kinase panel

SMILES: CN1C(=O)[C@@H](N2CCc3c(nn(Cc4ccccc4)c3Br)C2=O)COc2ccccc21 [TP-030-2]
- inhibition [1]: -4%
- inhibition [2]: 30.1%
- IC50 [3]: 1000 nM
- IC50 (Ephrin type-A receptor 7): 1000 nM
- inhibition [4]: 14%
- IC50 [5]: 1000 nM
- IC50 (SRSF protein kinase 2): 1000 nM
- IC50 [6]: 1000 nM
- IC50 [7]: 1000 nM
- inhibition [8]: 38.3%
- IC50 [9]: 1000 nM
- IC50 [10]: 1000 nM
- inhibition [11]: -7%
- IC50 [12]: 1000 nM
- inhibition [13]: 13%
- IC50 (eIF-2-alpha kinase GCN2): 1000 nM
- inhibition [14]: 21.6%
- IC50 [15]: 1000 nM
- IC50 [16]: 1000 nM
- inhibition [17]: 0.52%
- inhibition [18]: 9%
- IC50 [19]: 1000 nM
- IC50 [20]: 1000 nM
- IC50 [21]: 1000 nM
- IC50 [22]: 1000 nM
- IC50 [23]: 1000 nM
- IC50 [24]: 1000 nM
- IC50 [25]: 1000 nM
- IC50 [26]: 1000 nM
- IC50 [27]: 1000 nM
- inhibition [28]: 22.6%
- IC50 [29]: 1000 nM
- Ki ([30]; read-out: Ki): 2950 nM
- Ki ([30]; read-out: pKi (converted)): 2820 nM
- inhibition [31]: 3%
- IC50 [32]: 100 nM (active)
- IC50 [33]: 1000 nM
- inhibition [34]: 27%
- inhibition [35]: -1%
- IC50 [36]: 1000 nM
- IC50 [37]: 1000 nM
- IC50 [38]: 1000 nM
- IC50 [39]: 1000 nM
- IC50 [40]: 1000 nM
- IC50 [41]: 1000 nM
